Reference: patent publication US20230123334A1, “AMINO LIPID COMPOUND, PREPARATION METHOD THEREFOR, AND APPLICATION THEREOF” (SHENZHEN SHENXIN BIOTECHNOLOGY CO., LTD., priority 2020, published 2023)

What follows are molecules tested on HEK293 cells (assay: Preliminary screening as mRNA vectors, EGFP mRNA transfection of HEK293 cells). Conditions: EGFP mRNA 50 ng per well, 96-well plates; percentage of GFP fluorescent cells relative to total number of cells (Hoechst).
Type: cell-based
Summary of the method: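 HEK293 cells in DMEM plus 10% FBS transfected in 96-well format with 50 ng EGFP mRNA per well; Lipofectamine2000 served as positive control. Read-out is the percentage of GFP-fluorescent cells among total cells, counted by Hoechst nuclear stain.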
`CCCCCCCCCCCCSc1nc(NCCCCCCCCCCC)nc(NCCN(CC)CC)n1` [Compound D7S12N11] was tested, and the “Absolute mRNA transfection efficiency in HEK293 cells” value (shortened to “Absolute mRNA transfection efficiency”) was 4.4%. `CCCCCCCCCCCCNc1nc(NCCN(CC)CC)nc(SCCCCCCCCCCCC)n1` [Compound D7S12N12] was tested, and the “Absolute mRNA transfection efficiency” value was 3.7%. `CCCCCCCCCCCCCNc1nc(NCCN(CC)CC)nc(SCCCCCCCCCCCC)n1` [Compound D7S12N13] was tested, and the “Absolute mRNA transfection efficiency” value was 4.9%. In the case of `CCCCCCCCCCCCCCCNc1nc(NCCN(CC)CC)nc(SCCCCCCCCCCCC)n1` [Compound D7S12N15], the “Absolute mRNA transfection efficiency” value is reported as 1.3%. For `CCCCCCCCCCCCCCCCNc1nc(NCCN(CC)CC)nc(SCCCCCCCCCCCC)n1` [Compound D7S12N16], the “Absolute mRNA transfection efficiency” value was 6.3%. In the case of `CCCCCCCCCCCCCCCCCCNc1nc(NCCN(CC)CC)nc(SCCCCCCCCCCCC)n1` [Compound D7S12N18], the “Absolute mRNA transfection efficiency” value is reported as 1.1%. In the case of `CCCCCCCCCCCCCCSc1nc(NCCCCCC)nc(NCCN(CC)CC)n1` [Compound D7S14N6], the “Absolute mRNA transfection efficiency” value is reported as 15.7%. With `CCCCCCCCCCCCCCSc1nc(NCCCCCCC)nc(NCCN(CC)CC)n1` [Compound D7S14N7] the “Absolute mRNA transfection efficiency” value was 36.3%. In the case of `CCCCCCCCCCCCCCSc1nc(NCCCCCCCC)nc(NCCN(CC)CC)n1` [Compound D7S14N8], the “Absolute mRNA transfection efficiency” value is reported as 10.8%. `CCCCCCCCCCCCCCSc1nc(NCCCCCCCCC)nc(NCCN(CC)CC)n1` [Compound D7S14N9] was tested, and the “Absolute mRNA transfection efficiency” value was 29.8%. In the case of `CCCCCCCCCCCCCCSc1nc(NCCCCCCCCCCC)nc(NCCN(CC)CC)n1` [Compound D7S14N11], the “Absolute mRNA transfection efficiency” value is reported as 17.0%. `CCCCCCCCCCCCCCSc1nc(NCCCCCCCCCCCC)nc(NCCN(CC)CC)n1` [Compound D7S14N12] was tested, and the “Absolute mRNA transfection efficiency” value was 6.6%. In the case of `CCCCCCCCCCCCCCSc1nc(NCCCCCCCCCCCCC)nc(NCCN(CC)CC)n1` [Compound D7S14N13], the “Absolute mRNA transfection efficiency” value is reported as 11.7%. With `CCCCCCCCCCCCCCCNc1nc(NCCN(CC)CC)nc(SCCCCCCCCCCCCCC)n1` [Compound D7S14N15] the “Absolute mRNA transfection efficiency” value was 0.8%. `CCCCCCCCCCCCCCCCNc1nc(NCCN(CC)CC)nc(SCCCCCCCCCCCCCC)n1` [Compound D7S14N16] was tested, and the “Absolute mRNA transfection efficiency” value was 2.7%. In the case of `CCCCCCCCCCCCCCCCCCNc1nc(NCCN(CC)CC)nc(SCCCCCCCCCCCCCC)n1` [Compound D7S14N18], the “Absolute mRNA transfection efficiency” value is reported as 0.4%. For `CCCCCCCCCCCCCCCSc1nc(NCCCCCC)nc(NCCN(CC)CC)n1` [Compound D7S15N6], the “Absolute mRNA transfection efficiency” value was 2.7%. With `CCCCCCCCCCCCCCCSc1nc(NCCCCCCC)nc(NCCN(CC)CC)n1` [Compound D7S15N7] the “Absolute mRNA transfection efficiency” value was 27.8%. For `CCCCCCCCCCCCCCCSc1nc(NCCCCCCCC)nc(NCCN(CC)CC)n1` [Compound D7S15N8], the “Absolute mRNA transfection efficiency” value was 18.0%. For `CCCCCCCCCCCCCCCSc1nc(NCCCCCCCCC)nc(NCCN(CC)CC)n1` [Compound D7S15N9], the “Absolute mRNA transfection efficiency” value was 9.4%. With `CCCCCCCCCCCCCCCSc1nc(NCCCCCCCCCCC)nc(NCCN(CC)CC)n1` [Compound D7S15N11] the “Absolute mRNA transfection efficiency” value was 5.0%. With `CCCCCCCCCCCCCCCSc1nc(NCCCCCCCCCCCC)nc(NCCN(CC)CC)n1` [Compound D7S15N12] the “Absolute mRNA transfection efficiency” value was 4.7%. In the case of `CCCCCCCCCCCCCCCSc1nc(NCCCCCCCCCCCCC)nc(NCCN(CC)CC)n1` [Compound D7S15N13], the “Absolute mRNA transfection efficiency” value is reported as 5.2%. `CCCCCCCCCCCCCCCNc1nc(NCCN(CC)CC)nc(SCCCCCCCCCCCCCCC)n1` [Compound D7S15N15] was tested, and the “Absolute mRNA transfection efficiency” value was 1.8%. `CCCCCCCCCCCCCCCCNc1nc(NCCN(CC)CC)nc(SCCCCCCCCCCCCCCC)n1` [Compound D7S15N16] was tested, and the “Absolute mRNA transfection efficiency” value was 0.5%. With `CCCCCCCCCCCCCCCCCCNc1nc(NCCN(CC)CC)nc(SCCCCCCCCCCCCCCC)n1` [Compound D7S15N18] the “Absolute mRNA transfection efficiency” value was 0.8%. For `CCCCCCCCCCCCCCCCSc1nc(NCCCCCC)nc(NCCN(CC)CC)n1` [Compound D7S16N6], the “Absolute mRNA transfection efficiency” value was 16.5%. For `CCCCCCCCCCCCCCCCSc1nc(NCCCCCCC)nc(NCCN(CC)CC)n1` [Compound D7S16N7], the “Absolute mRNA transfection efficiency” value was 7.8%. `CCCCCCCCCCCCCCCCSc1nc(NCCCCCCCC)nc(NCCN(CC)CC)n1` [Compound D7S16N8] was tested, and the “Absolute mRNA transfection efficiency” value was 6.5%. In the case of `CCCCCCCCCCCCCCCCSc1nc(NCCCCCCCCC)nc(NCCN(CC)CC)n1` [Compound D7S16N9], the “Absolute mRNA transfection efficiency” value is reported as 9.0%. In the case of `CCCCCCCCCCCCCCCCSc1nc(NCCCCCCCCCCC)nc(NCCN(CC)CC)n1` [Compound D7S16N11], the “Absolute mRNA transfection efficiency” value is reported as 8.3%. In the case of `CCCCCCCCCCCCCCCCSc1nc(NCCCCCCCCCCCC)nc(NCCN(CC)CC)n1` [Compound D7S16N12], the “Absolute mRNA transfection efficiency” value is reported as 1.3%. With `CCCCCCCCCCCCCCCCSc1nc(NCCCCCCCCCCCCC)nc(NCCN(CC)CC)n1` [Compound D7S16N13] the “Absolute mRNA transfection efficiency” value was 2.9%. For `CCCCCCCCCCCCCCCCSc1nc(NCCCCCCCCCCCCCCC)nc(NCCN(CC)CC)n1` [Compound D7S16N15], the “Absolute mRNA transfection efficiency” value was 1.1%. In the case of `CCCCCCCCCCCCCCCCNc1nc(NCCN(CC)CC)nc(SCCCCCCCCCCCCCCCC)n1` [Compound D7S16N16], the “Absolute mRNA transfection efficiency” value is reported as 1.6%. With `CCCCCCCCCCCCCCCCCCNc1nc(NCCN(CC)CC)nc(SCCCCCCCCCCCCCCCC)n1` [Compound D7S16N18] the “Absolute mRNA transfection efficiency” value was 1.5%. For `CCCCCCCCCCCCCCCCCCSc1nc(NCCCCCC)nc(NCCN(CC)CC)n1` [Compound D7S18N6], the “Absolute mRNA transfection efficiency” value was 19.5%. With `CCCCCCCCCCCCCCCCCCSc1nc(NCCCCCCC)nc(NCCN(CC)CC)n1` [Compound D7S18N7] the “Absolute mRNA transfection efficiency” value was 6.5%. In the case of `CCCCCCCCCCCCCCCCCCSc1nc(NCCCCCCCC)nc(NCCN(CC)CC)n1` [Compound D7S18N8], the “Absolute mRNA transfection efficiency” value is reported as 9.8%. With `CCCCCCCCCCCCCCCCCCSc1nc(NCCCCCCCCC)nc(NCCN(CC)CC)n1` [Compound D7S18N9] the “Absolute mRNA transfection efficiency” value was 1.9%. With `CCCCCCCCCCCCCCCCCCSc1nc(NCCCCCCCCCCC)nc(NCCN(CC)CC)n1` [Compound D7S18N11] the “Absolute mRNA transfection efficiency” value was 10.7%. In the case of `CCCCCCCCCCCCCCCCCCSc1nc(NCCCCCCCCCCCC)nc(NCCN(CC)CC)n1` [Compound D7S18N12], the “Absolute mRNA transfection efficiency” value is reported as 0.3%. For `CCCCCCCCCCCCCCCCCCSc1nc(NCCCCCCCCCCCCC)nc(NCCN(CC)CC)n1` [Compound D7S18N13], the “Absolute mRNA transfection efficiency” value was 1.5%. `CCCCCCCCCCCCCCCCCCSc1nc(NCCCCCCCCCCCCCCC)nc(NCCN(CC)CC)n1` [Compound D7S18N15] was tested, and the “Absolute mRNA transfection efficiency” value was 0.3%.
